According to PMC9814900 (Communications Chemistry, 2022):
One block for each compound: values may come before it. Numbered stars: 1 amine (or outer) side, 2 acyl side, 3 side chain; on linkers, the order of the positions; unused ones are H or OH. Bridge positions count the residues as written; N and C are the ends. Peptide text beside a SMILES is read from it. * marks the point of attachment. Biotin = O=C1N[C@H]2[C@H](CS[C@H]2CCCCC(=O)*)N1; C6F4(1,4-diyl) = Fc1c(F)c([*:2])c(F)c(F)c1[*:1]; PEG4 = NCCOCCOCCOCCOCCC(=O)O

Experiments:
[1] = target: T1, SUMO-25-109MDM2 (Homo sapiens, UniProt Q00987); experiment: Direct BLI binding assay of immobilised biotinylated peptides; settings: biotin-PEG4-peptide on streptavidin sensor, SUMO-25-109MDM2 4-500 nM, global 1:1 fit
T1 construct: the ^25-109MDM2 gene was purchased from Addgene; made in house; host or cells: E. coli Rosetta (DE3) pLysS
Method: 6. Supplementary Methods 4: Binding validation by bio-layer interferometry 6.1 Methods for BLI assay
In vitro binding assay was performed using ForteBio Octet RED96 BLI system (Octet RED96). In a typical experiment, the streptavidin (SA) tips were dipped in 200 µL biotinylated- peptide solution (2.0 μM in PBS with 0.02% Tween 20 and 1 mg/mL BSA) for the loading step. The loaded tips were then dipped in the sample wells for association curves. Buffer-only condition were used as reference for background subtraction. After association, the tips were dipped in blocking buffer (1x PBS, 0.02% Tween 20, 1 mg/mL BSA) to obtain dissociation curve. The association and dissociation curves were fitted by the global fitting algorithm, under binding model 1:1 to obtain the binding response value (R) in nm.
Streptavidin sensors were soaked in blocking buffer for 5 min. After immobilizing the PEG4-biotinylated peptide (100 nM of Biotin-PEG4-peptide) onto streptavidin sensors, serial dilutions of SUMO-25-109MDM2 in blocking buffer were analyzed for binding (500 nM, 250 nM, 125 nM, 63nM, 32 nM, 16 nM, 8 nM and 4 nM. The response was recorded at equilibrium after 2 min.

[2] = Serum stability assay; format: in vitro ADME; settings: 10 µM peptide, 25% human serum in 1x PBS (v/v); 0 min-24 h; TCA precipitation; LC-MS EIC peak area; first-order fit; three experiments; read-out: Half-life (t1/2) in serum
Method: To assess the stability of stapled peptides, we performed a serum stability assay (Supplementary Fig. 6)[31],[36],[37]. Three stapled peptides were selected for assessment. […]
10 µM peptide were incubated with 25% human serum in buffer 1x PBS (v/v). At each time point (0 min, 5 min, 10 min, 30 min, 1 h, 2 h, 4 h, 8 h, 12h and 24 h), the mixture was sampled, treated with 10% trichloroacetic acid, and centrifuged at 12,000 g to remove serum proteins. The supernatant was acidified with 0.2% formic acid in water (v/v) and subjected to LC-MS analysis. The percentage of peptides (Y-axis) was calculated as the ratio of peak area in extracted ion chromatogram (EIC). Three experiments were carried out. The serum digestion curve was plotted using Prism8 software. The half-life of each peptide was calculated by fitted the digestion curve with the first order kinetic equation: ሾXሿ௧ ൌ ሾXሿ଴ ൈeି௞௧ , ሾXሿ is the remaining peptide percentage, t is the time in min. Half-life was calculated as tଵ/ଶ ൌሺln 2ሻ/k .

[3] = target: T1, SUMO-25-109MDM2; experiment: In-solution competition assay by biolayer interferometry (BLI); format: binding; settings: supplementary binding validation; averaged over three measurements; ~30-100 nM SUMO-25-109MDM2 as given per peptide; read-out: Averaged KD, competition BLI assay
[4] = target: antibody 12ca5; settings: stated for the epitope without method; ref not given; cited from earlier work
From the text: The epitope used for 12ca5 has the sequence […]; the previously characterized protein 14-3-3σ binder 14-3-3.6 was used for 14-3-3σ and its sequence can be found in Fig. 6b. A beta-alanine spacer was used between the library construct and the C-terminal lysine.

[5] = target: 14-3-3σ; settings: previously characterized binder; cited from earlier work
From the text: The epitope used for 12ca5 has the sequence […]; the previously characterized protein 14-3-3σ binder 14-3-3.6 was used for 14-3-3σ and its sequence can be found in Fig. 6b. A beta-alanine spacer was used between the library construct and the C-terminal lysine. […]

Compound: CC(C)C[C@H](NC(=O)[C@H](C)NC(=O)[C@H](C)NC(=O)[C@H](Cc1c[nH]c2ccccc12)NC(=O)[C@H](Cc1ccc(O)cc1)NC(=O)[C@H](C)NC(=O)[C@H](C)NC(=O)[C@H](Cc1ccccc1)NC(=O)[C@H](C)NC(=O)[C@@H](NC(=O)CCOCCOCCOCCOCCNC(=O)CCCC[C@@H]1SC[C@@H]2NC(=O)N[C@@H]21)[C@@H](C)O)C(=O)N[C@@H](C)C(=O)N[C@@H](C)C(=O)N[C@@H](CCCCN)C(N)=O [Peptide 32-biotin] ({Biotin-PEG4}-TAFAAYWAALAAK-NH2)
koff [1]: 0.00981 s⁻¹ | kon [1]: 633000 M⁻¹ s⁻¹

Compound: CC(C)C[C@H](NC(=O)[C@H](C)NC(=O)[C@H](C)NC(=O)[C@H](Cc1c[nH]c2ccccc12)NC(=O)[C@H](Cc1ccc(O)cc1)NC(=O)[C@H](C)NC(=O)[C@H](C)NC(=O)[C@H](Cc1ccccc1)NC(=O)[C@H](C)NC(=O)[C@@H](N)[C@@H](C)O)C(=O)N[C@@H](C)C(=O)N[C@@H](C)C(=O)N[C@@H](CCCCN)C(N)=O [Peptide 32] (H-TAFAAYWAALAAK-NH2)
half-life at 10 µM [2]: 3.9 min

Compound: YPYDVPDYA
Kd [4]: 4 nM

Compound: CC(C)C[C@H](NC(=O)[C@H](C)NC(=O)[C@H](C)NC(=O)[C@H](Cc1c[nH]c2ccccc12)NC(=O)[C@H](Cc1ccc(O)cc1)NC(=O)[C@H](C)NC(=O)[C@H](C)NC(=O)[C@H](Cc1ccccc1)NC(=O)[C@H](CO)NC(=O)[C@H](C)NC(=O)CCOCCOCCOCCOCCNC(=O)CCCC[C@@H]1SC[C@@H]2NC(=O)N[C@@H]21)C(=O)N[C@@H](C)C(=O)N[C@@H](C)C(=O)N[C@@H](CCCCN)C(N)=O [Peptide 33-biotin] ({Biotin-PEG4}-ASFAAYWAALAAK-NH2)
koff [1]: 0.0107 s⁻¹ | kon [1]: 170000 M⁻¹ s⁻¹

Compound: CC(C)C[C@H](NC(=O)[C@H](CC(N)=O)NC(=O)[C@H](Cc1c[nH]c2ccccc12)NC(=O)[C@H](Cc1ccc(O)cc1)NC(=O)[C@H](CCC(=O)O)NC(=O)[C@H](C)NC(=O)[C@H](Cc1ccccc1)NC(=O)[C@H](CO)NC(=O)[C@@H](N)[C@@H](C)O)C(=O)N[C@@H](CC(C)C)C(=O)N[C@@H](CO)C(=O)N1CCC[C@H]1C(N)=O [PMI, reference compound] (H-TSFAEYWNLLSP-NH2)
half-life at 10 µM [2]: 2.2 min

Compound: Cha-Cha-β-Ser-Orn-pSer-Nph-β-Ser-β-Ser-Nph [Peptide 14-3-3.6]
Kd [5]: 3 nM

The remaining lines, values ahead:

half-life at 10 µM [2]: 27 min | Kd [3]: 0.4 ± 0.3 nM
Compound: CC(C)C[C@H](NC(=O)[C@@H]1CSc2c(F)c(F)c(c(F)c2F)SC[C@H](NC(=O)[C@H](C)NC(=O)[C@H](Cc2ccccc2)NC(=O)[C@H](CO)NC(=O)[C@H](C)N)C(=O)N[C@@H](Cc2ccc(O)cc2)C(=O)N[C@@H](Cc2c[nH]c3ccccc23)C(=O)N[C@@H](C)C(=O)N1)C(=O)N[C@@H](CO)C(=O)N[C@@H](C)C(N)=O [Peptide 38] (H-ASFACYWACLSA-NH2; linker 5-9 via C6F4(1,4-diyl))

half-life at 10 µM [2]: 25 min | Kd [3]: 3.3 ± 2.1 nM
Compound: CC(C)C[C@@H]1NC(=O)[C@H](C)NC(=O)[C@@H](NC(=O)[C@H](Cc2c[nH]c3ccccc23)NC(=O)[C@H](Cc2ccc(O)cc2)NC(=O)[C@H](CCC(=O)O)NC(=O)[C@H](C)NC(=O)[C@H](Cc2ccccc2)NC(=O)[C@H](CO)NC(=O)[C@H](C)N)CSc2c(F)c(F)c(c(F)c2F)SC[C@@H](C(N)=O)NC(=O)[C@H](C)NC1=O [Peptide 39] (H-ASFAEYWCALAC-NH2; linker 8-12 via C6F4(1,4-diyl))

koff [1]: 0.0102 s⁻¹ | kon [1]: 824000 M⁻¹ s⁻¹
Compound: CC(C)C[C@H](NC(=O)[C@H](C)NC(=O)[C@H](C)NC(=O)[C@H](Cc1c[nH]c2ccccc12)NC(=O)[C@H](Cc1ccc(O)cc1)NC(=O)[C@H](C)NC(=O)[C@H](C)NC(=O)[C@H](Cc1ccccc1)NC(=O)[C@H](C)NC(=O)[C@H](C)NC(=O)CCOCCOCCOCCOCCNC(=O)CCCC[C@@H]1SC[C@@H]2NC(=O)N[C@@H]21)C(=O)N[C@@H](C)C(=O)N[C@@H](C)C(=O)N[C@@H](CCCCN)C(N)=O [Peptide 34-biotin] ({Biotin-PEG4}-AAFAAYWAALAAK-NH2)

half-life at 10 µM [2]: 5.1 min
Compound: CC(C)C[C@H](NC(=O)[C@H](C)NC(=O)[C@H](C)NC(=O)[C@H](Cc1c[nH]c2ccccc12)NC(=O)[C@H](Cc1ccc(O)cc1)NC(=O)[C@H](C)NC(=O)[C@H](C)NC(=O)[C@H](Cc1ccccc1)NC(=O)[C@H](C)NC(=O)[C@H](C)N)C(=O)N[C@@H](C)C(=O)N[C@@H](C)C(=O)N[C@@H](CCCCN)C(N)=O [Peptide 34] (H-AAFAAYWAALAAK-NH2)

half-life at 10 µM [2]: 26 min | Kd [3]: 4.4 ± 1.9 nM
Compound: CC(C)C[C@H](NC(=O)[C@H](C)NC(=O)[C@@H]1CSc2c(F)c(F)c(c(F)c2F)SC[C@H](NC(=O)[C@H](Cc2ccccc2)NC(=O)[C@H](CO)NC(=O)[C@H](C)N)C(=O)N[C@@H](CCC(=O)O)C(=O)N[C@@H](Cc2ccc(O)cc2)C(=O)N[C@@H](Cc2c[nH]c3ccccc23)C(=O)N1)C(=O)N[C@@H](C)C(=O)N[C@@H](C)C(N)=O [Peptide 36] (H-ASFCEYWCALAA-NH2; linker 4-8 via C6F4(1,4-diyl))
